Measurements reported in patent US9440982B2 (Eolas Therapeutics, Inc., priority 2012, dated 2016).
pIC50: −log10 of the molar value.

Assays:
CYP3A4 = molecular target: T1, CYP3A4 (Homo sapiens, UniProt P08684); assay: Cytochrome P450 inhibition assay (midazolam hydroxylation); type: in vitro ADME; settings: human, human liver microsomes, probe midazolam (hydroxylation to 1′-hydroxymidazolam), 10 μM test compound, midazolam at approximately its Km
T1 construct: pre-incubated with human liver microsomes and NADPH; from tissue; host or cells: human liver microsomes
T1 sequence (P08684 whole entry): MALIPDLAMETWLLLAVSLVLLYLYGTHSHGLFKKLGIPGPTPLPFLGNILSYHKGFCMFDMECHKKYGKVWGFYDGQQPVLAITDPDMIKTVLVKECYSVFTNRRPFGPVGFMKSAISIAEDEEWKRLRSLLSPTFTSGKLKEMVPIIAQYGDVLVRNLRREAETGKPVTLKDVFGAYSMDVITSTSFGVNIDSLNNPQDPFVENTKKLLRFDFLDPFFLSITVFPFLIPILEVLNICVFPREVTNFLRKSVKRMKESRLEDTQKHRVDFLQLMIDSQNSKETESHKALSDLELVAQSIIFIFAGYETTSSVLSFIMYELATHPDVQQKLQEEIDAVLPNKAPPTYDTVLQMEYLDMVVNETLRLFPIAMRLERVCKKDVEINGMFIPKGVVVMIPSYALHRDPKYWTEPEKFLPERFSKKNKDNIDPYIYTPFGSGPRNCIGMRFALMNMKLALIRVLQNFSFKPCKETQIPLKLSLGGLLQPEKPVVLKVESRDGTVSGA
Procedure, shortened: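 Percent inhibition of midazolam 1′-hydroxylation by 10 μM compound was measured, midazolam dosed at about Km. Time-dependent inhibition was probed by a 30 min preincubation of compound with human liver microsomes and NADPH ahead of substrate, compared against samples without preincubation.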

OX1 = molecular target: T2, OX1 (Homo sapiens, UniProt O43613); assay: Orexin receptor cell-based functional assay, [Ca2+]i by FLIPR, CHO-OX1 cells; settings: CHO-OX1 cells, [Ca2+]i by FLIPR, antagonist dose-range 0.1 nM-10 μM, EC90 of OXA; read-out: OX1
T2 construct: expressed in transfected cells; host or cells: CHO (CHO-OX1, kept under selection antibiotic)
T2 sequence (O43613 1-425): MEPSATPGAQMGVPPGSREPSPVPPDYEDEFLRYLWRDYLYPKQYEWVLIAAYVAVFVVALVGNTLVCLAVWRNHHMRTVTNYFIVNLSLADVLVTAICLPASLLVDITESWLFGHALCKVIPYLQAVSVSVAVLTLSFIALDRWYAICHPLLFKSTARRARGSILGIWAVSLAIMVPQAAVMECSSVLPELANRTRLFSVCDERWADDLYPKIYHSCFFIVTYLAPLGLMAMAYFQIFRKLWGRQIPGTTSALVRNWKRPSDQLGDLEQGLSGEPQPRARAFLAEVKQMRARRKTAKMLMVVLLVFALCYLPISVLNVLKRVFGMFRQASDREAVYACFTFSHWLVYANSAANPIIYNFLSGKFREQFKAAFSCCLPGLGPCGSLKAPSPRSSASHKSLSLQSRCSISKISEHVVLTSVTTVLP
Procedure, shortened: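 Antagonist mode FLIPR calcium read in CHO-OX1 and CHO-OX2 lines. Test compounds, dosed 0.1 nM-10 μM, preincubated 30 min after 37° C dye loading with 2.5 mM probenecid (calcium4 for 30 min or calcium6 for 2 h).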

| Compound | inhibition at 10 µM (CYP3A4) [%] | pIC50 (OX1) |
| --- | --- | --- |
| Cc1ccc(-c2ccccn2)c(C(=O)N2CCC[C@@H](C)[C@H]2CNc2ccc(Cl)cn2)c1 [Example A117, ((2S,3R)-2-(((5-chloropyridin-2-yl)amino)methyl)-3-methylpiperidin-1-yl)(5-methyl-2-(pyridin-2-yl)phenyl)methanone] | 92 | 7.43 |
| Cc1ccc(-n2nccn2)c(C(=O)N2CCC[C@@H](C)[C@H]2CNc2ncc3cc(Br)ccc3n2)c1 [Example A122, ((2S,3R)-2-(((6-Bromoquinazolin-2-yl)amino)methyl)-3-methylpiperidin-1-yl)(5-methyl-2-(2H-1,2,3-triazol-2-yl)phenyl)methanone] | 72 | 7.02 |
| Cc1ccc(-n2nccn2)c(C(=O)N2CCC[C@@H](C)[C@H]2CNc2nc(C(F)(F)F)cs2)c1 [Example A123, ((2S,3R)-3-Methyl-2-(((4-(trifluoromethyl)thiazol-2-yl)amino)methyl)piperidin-1-yl)(5-methyl-2-(2H-1,2,3-triazol-2-yl)phenyl)methanone] | 97 | 6.39 |
| Cc1ccc(-n2ncc(C)n2)c(C(=O)N2CCC[C@@H](C)[C@H]2CNc2ccc(C(F)(F)F)nn2)c1 [Example A125, ((2S,3R)-3-Methyl-2-(((6-(trifluoromethyl)pyridazin-3-yl)amino)methyl)piperidin-1-yl)(5-methyl-2-(4-methyl-2H-1,2,3-triazol-2-yl)phenyl)methanone] | 75 | 7.60 |
| Cc1ccc(-n2ccc(C)n2)c(C(=O)N2CCC[C@@H](C)[C@H]2CNc2ccc(C(F)(F)F)nn2)c1 [Example A130, ((2S,3R)-3-Methyl-2-(((6-(trifluoromethyl)pyridazin-3-yl)amino)methyl)piperidin-1-yl)(5-methyl-2-(3-methyl-1H-pyrazol-1-yl)phenyl)methanone] | 86 | 7.68 |
| Cc1ccc(-n2ccc(C)n2)c(C(=O)N2CCC[C@@H](C)[C@H]2CNc2nnc(C(F)(F)F)s2)c1 [Example A132, ((2S,3R)-3-Methyl-2-(((5-(trifluoromethyl)-1,3,4-thiadiazol-2-yl)amino)methyl)piperidin-1-yl)(5-methyl-2-(3-methyl-1H-pyrazol-1-yl)phenyl)methanone] | 81 | 6.80 |
| Cc1ccc(-n2ccc(C)n2)c(C(=O)N2CCC[C@@H](C)[C@H]2CNc2ccc(C#N)cn2)c1 [Example A133, 6-((((2S,3R)-3-Methyl-1-(5-methyl-2-(3-methyl-1H-pyrazol-1-yl)benzoyl)piperidin-2-yl)methyl)amino)nicotinonitrile] | 89 | 7.03 |
| Cc1ccc(-n2nccn2)c(C(=O)N2CCC[C@@H](C)[C@H]2CNc2ncc(C#N)cn2)c1 [Example A134, 2-((((2S,3R)-3-Methyl-1-(5-methyl-2-(2H-1,2,3-triazol-2-yl)benzoyl)piperidin-2-yl)methyl)amino)pyrimidine-5-carbonitrile] | 50 | 6.82 |
| Cc1ccc(-n2ncc(C)n2)c(C(=O)N2CCC[C@@H](C)[C@H]2CNc2nnc(C(F)(F)F)s2)c1 [Example A135, ((2S,3R)-3-Methyl-2-(((5-(trifluoromethyl)-1,3,4-thiadiazol-2-yl)amino)methyl)piperidin-1-yl)(5-methyl-2-(4-methyl-2H-1,2,3-triazol-2-yl)phenyl)methanone] | 80 | 7.68 |
| Cc1ccc(-c2ncccn2)c(C(=O)N2CCC[C@@H](C)[C@H]2CNc2ccc(C(F)(F)F)nn2)c1 [Example A137, ((2S,3R)-3-Methyl-2-(((6-(trifluoromethyl)pyridazin-3-yl)amino)methyl)piperidin-1-yl)(5-methyl-2-(pyrimidin-2-yl)phenyl)methanone] | 47 | 7.51 |

Other lines, results leading:

| inhibition at 10 µM (CYP3A4) [%] | pIC50 (OX1) | Compound |
| --- | --- | --- |
| 96 | 7.77 | Cc1ccc(-c2cnn(C(C)C)c2)c(C(=O)N2CCC[C@@H](C)[C@H]2CNc2ccc(C(F)(F)F)cn2)c1 [Example A111, (2-(1-Isopropyl-1H-pyrazol-4-yl)-5-methylphenyl)((2S,3R)-3-methyl-2-(((5-(trifluoromethyl)pyridin-2-yl)amino)methyl)piperidin-1-yl)methanone] |
| 84 | 8.70 | Cc1ccc(-n2ncc(C)n2)c(C(=O)N2CCC[C@@H](C)[C@H]2CNc2ccc(C(F)(F)F)cn2)c1 [Example A112, ((2S,3R)-3-Methyl-2-(((5-(trifluoromethyl)pyridin-2-yl)amino)methyl)piperidin-1-yl)(5-methyl-2-(4-methyl-2H-1,2,3-triazol-2-yl)phenyl)methanone] |
| 90 | 7.80 | Cc1ccc(-n2ccc(C)n2)c(C(=O)N2CCC[C@@H](C)[C@H]2CNc2nc3cc(Cl)ccc3o2)c1 [Example A115, ((2S,3R)-2-(((5-Chlorobenzo[d]oxazol-2-yl)amino)methyl)-3-methylpiperidin-1-yl)(5-methyl-2-(3-methyl-1H-pyrazol-1-yl)phenyl)methanone] |
| 75 | 8.40 | Cc1ccc(-n2ncc(C)n2)c(C(=O)N2CCC[C@@H](C)[C@H]2CNc2nc3cc(Cl)ccc3o2)c1 [Example A116, ((2S,3R)-2-(((5-Chlorobenzo[d]oxazol-2-yl)amino)methyl)-3-methylpiperidin-1-yl)(5-methyl-2-(4-methyl-2H-1,2,3-triazol-2-yl)phenyl)methanone] |
| 59 | 7.72 | Cc1ccc(-n2nccn2)c(C(=O)N2CCC[C@@H](C)[C@H]2CNc2ccc(C(F)(F)F)nn2)c1 [Example A119, ((2S,3R)-3-Methyl-2-(((6-(trifluoromethyl)pyridazin-3-yl)amino)methyl)piperidin-1-yl)(5-methyl-2-(2H-1,2,3-triazol-2-yl)phenyl)methanone] |
| 90 | 7.68 | Cc1ccc(-n2ccc(C)n2)c(C(=O)N2CCC[C@@H](C)[C@H]2CNc2ccc(Cl)cn2)c1 [Example A120, ((2S,3R)-2-(((5-Chloropyridin-2-yl)amino)methyl)-3-methylpiperidin-1-yl)(5-methyl-2-(3-methyl-1H-pyrazol-1-yl)phenyl)methanone] |
| 84 | 8.30 | Cc1ccc(-n2ncc(C)n2)c(C(=O)N2CCC[C@@H](C)[C@H]2CNc2ccc(Cl)cn2)c1 [Example A121, ((2S,3R)-2-(((5-Chloropyridin-2-yl)amino)methyl)-3-methylpiperidin-1-yl)(5-methyl-2-(4-methyl-2H-1,2,3-triazol-2-yl)phenyl)methanone] |
| 57 | 8.30 | Cc1ccc(-n2nccn2)c(C(=O)N2CCC[C@@H](C)[C@H]2CNc2ccc(C#N)cn2)c1 [Example A127, 6-((((2S,3R)-3-Methyl-1-(5-methyl-2-(2H-1,2,3-triazol-2-yl)benzoyl)piperidin-2-yl)methyl)amino)nicotinonitrile] |
| 64 | 8.52 | Cc1ccc(-n2nccn2)c(C(=O)N2CCC[C@@H](C)[C@H]2CNc2nc3cc(F)ccc3o2)c1 [Example A129, ((2S,3R)-2-(((5-Fluorobenzo[d]oxazol-2-yl)amino)methyl)-3-methylpiperidin-1-yl)(5-methyl-2-(2H-1,2,3-triazol-2-yl)phenyl)methanone] |
